# Experimental data from article PMC3733996 (Bioorganic & medicinal chemistry letters, 2013).
# Target: serotonin transporter (SERT) (Rattus norvegicus, UniProt P31652)
# Assay: Displacement of [3H]citalopram from serotonin transporter in rat brain tissue
# Type: binding
# Conditions: ratio of Ki DAT / Ki SERT
# serotonin transporter (SERT), sequence (P31652 whole entry): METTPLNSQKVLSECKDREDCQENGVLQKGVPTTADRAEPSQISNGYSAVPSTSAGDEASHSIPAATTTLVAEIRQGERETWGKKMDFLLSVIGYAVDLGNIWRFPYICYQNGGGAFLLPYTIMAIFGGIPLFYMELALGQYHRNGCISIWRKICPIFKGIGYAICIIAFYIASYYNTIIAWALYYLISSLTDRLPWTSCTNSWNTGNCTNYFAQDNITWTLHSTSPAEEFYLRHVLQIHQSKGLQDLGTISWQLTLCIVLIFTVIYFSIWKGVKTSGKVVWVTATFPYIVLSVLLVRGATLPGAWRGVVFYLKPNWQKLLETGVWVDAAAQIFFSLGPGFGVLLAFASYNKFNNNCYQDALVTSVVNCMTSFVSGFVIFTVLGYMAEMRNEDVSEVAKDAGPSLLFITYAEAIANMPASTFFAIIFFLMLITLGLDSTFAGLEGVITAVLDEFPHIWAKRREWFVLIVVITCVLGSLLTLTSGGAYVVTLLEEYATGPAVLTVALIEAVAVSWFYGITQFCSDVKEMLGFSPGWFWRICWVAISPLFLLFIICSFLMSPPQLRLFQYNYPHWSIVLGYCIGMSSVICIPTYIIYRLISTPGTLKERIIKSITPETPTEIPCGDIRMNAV
row,SMILES,DAT/SERT
1,Cl.Clc1ccc(COC2(c3ccc(Cl)c(Cl)c3)CNC2)cc1 [6h],"1,000"
2,Cl.Clc1ccc(COC2(c3ccc(Cl)cc3)CNC2)cc1 [6e],"1,100"
